From US9840478B2 (MERCK SHARP & DOHME CORP., priority 2013, dated 2017)

What follows are compounds tested on HIV-1 (H9IIIB strain) (assay: Cell-based HIV infection assay using a reporter (Cell-Based), MT4-GFP cells). Conditions: Human immunodeficiency virus 1, MT4-GFP cells infected with HIV-1 H9IIIB; 50% normal human serum; mean of at least two independent experiments; read-out: Cell-based IP.
Procedure, shortened: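 MT4-GFP cells (HIV LTR-driven GFP) infected 24 h with HIV-1 H9IIIB at low MOI, then washed and plated with compounds in RPMI + 50% normal human serum, 0.4% DMSO final. Green cells counted at 24 and 48 h; R0 = 48 h/24 h ratio, inhibition normalized to DMSO and triple-drug control; IC50 from 4-parameter fit.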
In the case of `COC(=O)N[C@H](C(=O)Nc1cccc(F)c1CC[C@H]1CNCC(COC(C)C)N1S(=O)(=O)C1CC1)[C@@H](c1ccc(F)cc1)c1cc(F)cc(F)c1` (stereo partly drawn) [Example 237, (βS)-N-[2-(2-{(2S)-1-(cyclopropylsulfonyl)-6-[(1-methylethoxy)methyl]piperazin-2-yl}ethyl)-3-fluorophenyl]-β-(3,5-difluorophenyl)-4-fluoro-Nα-(methoxycarbonyl)-L-phenylalaninamide], the IC50 is reported as 30 nM.
`COc1ccccc1S(=O)(=O)N1[C@@H](CCc2c(F)cccc2NC(=O)[C@@H](N)[C@@H](c2ccc(F)cc2)c2cc(F)cc(F)c2)CNC[C@@H]1C` [Example 238, (βS)-β-(3,5-difluorophenyl)-4-fluoro-N-[3-fluoro-2-(2-{(2S,6S)-1-[(2-methoxyphenyl)sulfonyl]-6-methylpiperazin-2-yl}ethyl)phenyl]-L-phenylalaninamide] showed an IC50 of 110 nM.
`COc1ccccc1S(=O)(=O)N1[C@@H](CCc2c(F)cccc2NC(=O)[C@@H](N)[C@@H](c2ccc(F)cc2)c2cc(F)cc(F)c2)CNC[C@H]1C` [Example 239, (βS)-β-(3,5-difluorophenyl)-4-fluoro-N-[3-fluoro-2-(2-{(2S,6R)-1-[(2-methoxyphenyl)sulfonyl]-6-methylpiperazin-2-yl}ethyl)phenyl]-L-phenylalaninamide] showed an IC50 of 130 nM.
With `COC(=O)N[C@H](C(=O)Nc1cccc(F)c1CC[C@H]1CNC[C@H](C)N1S(=O)(=O)c1ccccc1OC)[C@@H](c1ccc(F)cc1)c1cc(F)cc(F)c1` [Example 240, (βS)-β-(3,5-difluorophenyl)-4-fluoro-N-[3-fluoro-2-(2-{(2S,6S)-1-[(2-methoxyphenyl)sulfonyl]-6-methylpiperazin-2-yl}ethyl)phenyl]-Nα-(methoxycarbonyl)-L-phenylalaninamide] the IC50 was 71 nM.
For `COCC1CNC[C@H](CCc2c(F)cccc2NC(=O)[C@@H](N)[C@@H](c2ccc(F)cc2)c2cc(F)cc(F)c2)N1S(=O)(=O)C1CC1` (stereo partly drawn) [Example 241, (βS)-N-(2-{2-[(2S)-1-(cyclopropylsulfonyl)-6-(methoxymethyl)piperazin-2-yl]ethyl}-3-fluorophenyl)-β-(3,5-difluorophenyl)-4-fluoro-L-phenylalaninamide], the IC50 was 39 nM.
Compound `CC(C)OCC1CNC[C@H](CCc2c(F)cccc2NC(=O)[C@@H](N)[C@H](c2cccc(F)c2)c2cccc(Cl)c2)N1S(C)(=O)=O` (stereo partly drawn) [Example 242, (βR)-β-(3-chlorophenyl)-3-fluoro-N-(3-fluoro-2-{2-[(2S)-6-[(1-methylethoxy)methyl]-1-(methylsulfonyl)piperazin-2-yl]ethyl}phenyl)-L-phenylalaninamide] has an IC50 of 220 nM.
For `C[C@H]1CNC[C@H](CCc2c(F)cncc2NC(=O)[C@@H](N)[C@@H](c2ccc(F)cc2)c2cc(F)cc(F)c2)N1S(=O)(=O)c1ccc(OC(F)(F)F)cc1` [Example 243, (βS)-β-(3,5-difluorophenyl)-4-fluoro-N-(5-fluoro-4-{2-[(2S,6S)-6-methyl-1-{[4-(trifluoromethoxy)phenyl]sulfonyl}piperazin-2-yl]ethyl}pyridin-3-yl)-L-phenylalaninamide], the IC50 was 17 nM.
`COc1ccc(S(=O)(=O)N2[C@@H](CCc3c(F)cncc3NC(=O)[C@@H](N)[C@@H](c3ccc(F)cc3)c3cc(F)cc(F)c3)CNC[C@@H]2C)cc1` [Example 244, (βS)-β-(3,5-difluorophenyl)-4-fluoro-N-[5-fluoro-4-(2-{(2S,6S)-1-[(4-methoxyphenyl)sulfonyl]-6-methylpiperazin-2-yl}ethyl)pyridin-3-yl]-L-phenylalaninamide] showed an IC50 of 5.9 nM.
Compound `C[C@H]1CNC[C@H](CCc2c(F)cncc2NC(=O)[C@@H](N)[C@@H](c2ccc(F)cc2)c2cc(F)cc(F)c2)N1S(=O)(=O)c1ccccc1Cl` [Example 245, (βS)-N-[4-(2-{(2S,6S)-1-[(2-chlorophenyl)sulfonyl]-6-methylpiperazin-2-yl}ethyl)-5-fluoropyridin-3-yl]-β-(3,5-difluorophenyl)-4-fluoro-L-phenylalaninamide] has an IC50 of 51 nM.
Work on `COC(=O)N[C@H](C(=O)Nc1cncc(F)c1CC[C@H]1CNC[C@H](C)N1S(=O)(=O)c1ccc(OC)cc1)[C@@H](c1ccc(F)cc1)c1cc(F)cc(F)c1` [Example 246, (βS)-β-(3,5-difluorophenyl)-4-fluoro-N-[5-fluoro-4-(2-{(2S,6S)-1-[(4-methoxyphenyl)sulfonyl]-6-methylpiperazin-2-yl}ethyl)pyridin-3-yl]-Nα-(methoxycarbonyl)-L-phenylalaninamide] yielded an IC50 of 5.9 nM.
With `COC(=O)N[C@H](C(=O)Nc1cncc(F)c1CC[C@H]1CNC[C@@H](C)N1S(=O)(=O)c1ccc(OC(F)(F)F)cc1)[C@@H](c1ccc(F)cc1)c1cc(F)cc(F)c1` [Example 247, (βS)-β-(3,5-difluorophenyl)-4-fluoro-N-(5-fluoro-4-{2-[(2S,6R)-6-methyl-1-{[4-(trifluoromethoxy)phenyl]sulfonyl}piperazin-2-yl]ethyl}pyridin-3-yl)-Nα-(methoxycarbonyl)-L-phenylalaninamide] the IC50 was 77 nM.
For `COC(=O)N[C@H](C(=O)Nc1cccc(F)c1CC[C@H]1CNC[C@@H](C)N1S(=O)(=O)c1ccc(OC(F)(F)F)cc1)[C@@H](c1ccc(F)cc1)c1cc(F)cc(F)c1` [Example 248, (βS)-β-(3,5-difluorophenyl)-4-fluoro-N-(3-fluoro-2-{2-[(2S,6R)-6-methyl-1-{[4-(trifluoromethoxy)phenyl]sulfonyl}piperazin-2-yl]ethyl}phenyl)-Nα-(methoxycarbonyl)-L-phenylalaninamide], the IC50 was 45 nM.
For `COc1ccc(S(=O)(=O)N2[C@@H](CCc3c(F)cccc3NC(=O)[C@@H](N)[C@@H](c3cccc(Cl)c3)C(C)C)CNC[C@@H]2C)cc1` [Example 249, (βR)-3-chloro-N-[3-fluoro-2-(2-{(2S,6S)-1-[(4-methoxyphenyl)sulfonyl]-6-methylpiperazin-2-yl}ethyl)phenyl]-β-(1-methylethyl)-L-phenylalaninamide], the IC50 was 53 nM.
In the case of `COC(=O)N[C@H](C(=O)Nc1cccc(F)c1CC[C@H]1CNC[C@H](C)N1S(=O)(=O)c1ccc(OC)cc1)[C@@H](c1cccc(Cl)c1)C(C)C` [Example 250, (βR)-3-chloro-N-[3-fluoro-2-(2-{(2S,6S)-1-[(4-methoxyphenyl)sulfonyl]-6-methylpiperazin-2-yl}ethyl)phenyl]-Nα-(methoxycarbonyl)-β-(1-methylethyl)-L-phenylalaninamide], the IC50 is reported as 34 nM.
In the case of `COc1ccc(S(=O)(=O)N2[C@@H](CCc3c(F)cccc3NC(=O)[C@@H](N)[C@@H](c3ccc(F)cc3)c3cc(F)cc(F)c3)CNC[C@@H]2C)cc1` [Example 251, (βS)-β-(3,5-difluorophenyl)-4-fluoro-N-[3-fluoro-2-(2-{(2S,6S)-1-[(4-methoxyphenyl)sulfonyl]-6-methylpiperazin-2-yl}ethyl)phenyl]-L-phenylalaninamide], the IC50 is reported as 4.1 nM.
`COC(=O)N[C@H](C(=O)Nc1cccc(F)c1CC[C@H]1CNC[C@H](C)N1S(=O)(=O)c1ccc(OC)cc1)[C@@H](c1ccc(F)cc1)c1cc(F)cc(F)c1` [Example 252, (βS)-β-(3,5-difluorophenyl)-4-fluoro-N-[3-fluoro-2-(2-{(2S,6S)-1-[(4-methoxyphenyl)sulfonyl]-6-methylpiperazin-2-yl}ethyl)phenyl]-Nα-(methoxycarbonyl)-L-phenylalaninamide] showed an IC50 of 7.9 nM.
